Reference: ChEMBL document CHEMBL6074662, “Antibacterial, Antibiofilm, and Anti-inflammatory Effects of a Novel Thrombin-Derived Peptide in Sepsis Models: Insights into Underlying Mechanisms” (J Med Chem, 2024)
In brackets after ≈: the same amount, converted by molar mass. Activity calls are given as the source filed them. The rule behind the calls is not given here.

What was measured:
Pseudomonas aeruginosa [1] = assay: Eradication of biofilm formation in multi-drug resistant Pseudomonas aeruginosa CCARM 2095 at 32 uM incubated for 12 hrs by CLSM analysis relative to control; type: functional
Pseudomonas aeruginosa [2] = assay: Inhibition of biofilm formation in multi-drug resistant Pseudomonas aeruginosa CCARM 2095 at 4 to 8 uM by crystal violet staining based analysis relative to control; type: functional; conditions: dose 4-8 µM
Pseudomonas aeruginosa [3] = assay: Antibacterial activity against multi-drug resistant Pseudomonas aeruginosa CCARM 2095 incubated for 24 hrs by broth microdilution method; type: functional
Staphylococcus aureus [4] = assay: Antibacterial activity against methicillin-resistant Staphylococcus aureus CCARM 3089 incubated for 24 hrs by broth microdilution method; type: functional
Acinetobacter baumannii [5] = assay: Antibacterial activity against carbapenem-resistant Acinetobacter baumannii 1707 incubated for 24 hrs by CLSI based broth microdilution method; type: functional, organism-based
Acinetobacter baumannii [6] = assay: Antibacterial activity against carbapenem-resistant Acinetobacter baumannii 1915 incubated for 24 hrs by CLSI based broth microdilution method; type: functional, organism-based
Escherichia coli [7] = assay: Induction of resistance development in Escherichia coli KCTC 1682 assessed as fold increase in MIC at 0.5 times MIC measured after 30 passages relative to control; type: functional
Staphylococcus aureus [8] = assay: Antibacterial activity against methicillin-resistant Staphylococcus aureus CCARM 3090 incubated for 24 hrs by CLSI based broth microdilution method; type: functional
Pseudomonas aeruginosa [9] = assay: Antibacterial activity against Pseudomonas aeruginosa KCTC 1637 incubated for 24 hrs by CLSI based broth microdilution method; type: functional
Acinetobacter baumannii [10] = assay: Antibacterial activity against multidrug-resistant Acinetobacter baumannii 329-97 incubated for 24 hrs by CLSI based broth microdilution method; type: functional
Pseudomonas aeruginosa [11] = assay: Antibacterial activity against multidrug-resistant Pseudomonas aeruginosa CCARM 2095 incubated for 24 hrs by CLSI based broth microdilution method; type: functional
[12] = Hemolytic activity in sheep RBC at 256 uM incubated for 1 hr by absorbance based assay; type: toxicity, cell-based, Ovis aries, Erythrocyte; conditions: sheep red blood cells, read-out: Activity
[13] = system: Staphylococcus epidermidis; assay: Antibacterial activity against Staphylococcus epidermidis KCTC 1917 incubated for 24 hrs by CLSI based broth microdilution method; type: functional
Salmonella typhimurium = assay: Antibacterial activity against Salmonella typhimurium KCTC 1926 incubated for 24 hrs by CLSI based broth microdilution method; type: functional, Salmonella enterica subsp. enterica serovar Typhimurium; conditions: Salmonella enterica
Bacillus subtilis = assay: Antibacterial activity against Bacillus subtilis KCTC 3068 incubated for 24 hrs by CLSI based broth microdilution method; type: functional
Enterococcus faecium = assay: Antibacterial activity against vancomycin-resistant Enterococcus faecium ATCC 51559 incubated for 24 hrs by CLSI based broth microdilution method; type: functional
Acinetobacter baumannii [14] = assay: Antibacterial activity against multidrug-resistant Acinetobacter baumannii 329-53 incubated for 24 hrs by CLSI based broth microdilution method; type: functional
[15] = Hydrophobicity of compound assessed as retention time by RP-HPLC analysis; type: physicochemical
Acinetobacter baumannii [16] = assay: Antibacterial activity against carbapenem-resistant Acinetobacter baumannii NMS 1915 incubated for 24 hrs by CLSI based broth microdilution method; type: functional
Staphylococcus aureus [17] = assay: Antibacterial activity against methicillin-resistant Staphylococcus aureus CCARM 3095 incubated for 24 hrs by CLSI based broth microdilution method; type: functional
Staphylococcus aureus [18] = assay: Antibacterial activity against Staphylococcus aureus KCTC 1621 incubated for 24 hrs by CLSI based broth microdilution method; type: functional
Pseudomonas aeruginosa [19] = assay: Antibacterial activity against multidrug-resistant Pseudomonas aeruginosa CCARM 2109 incubated for 24 hrs by CLSI based broth microdilution method; type: functional
Acinetobacter baumannii [20] = assay: Antibacterial activity against carbapenem-resistant Acinetobacter baumannii CCARM 12005 incubated for 24 hrs by CLSI based broth microdilution method; type: functional
[21] = Hemolytic activity in sheep RBC incubated for 1 hr by absorbance based assay; type: toxicity, cell-based, Ovis aries; conditions: erythrocyte
Acinetobacter baumannii [22] = assay: Antibacterial activity against carbapenem-resistant Acinetobacter baumannii NMS 1707 incubated for 24 hrs by CLSI based broth microdilution method; type: functional
Staphylococcus aureus [23] = assay: Antibacterial activity against methicillin-resistant Staphylococcus aureus CCARM 3089 incubated for 24 hrs by CLSI based broth microdilution method; type: functional
Escherichia coli [24] = assay: Antibacterial activity against Escherichia coli KCTC 1682 incubated for 24 hrs by CLSI based broth microdilution method; type: functional
[25] = Effect on secondary structure of drug in LPS assessed as fold increase in formation of alpha-helical conformation at 150 uM by CD analysis relative to HVF18; type: physicochemical
[26] = Effect on secondary structure of drug in SDS assessed as fold increase in formation of alpha-helical conformation at 150 uM by CD analysis relative to HVF18; type: physicochemical
[27] = Effect on secondary structure of drug in PBS assessed as formation of random coil structure at 150 uM by CD analysis; type: physicochemical; conditions: buffer
[28] = Effect on secondary structure of drug in TFE assessed as fold increase in formation of alpha-helical conformation at 150 uM by CD analysis relative to HVF18; type: physicochemical

Compound	MIC (Staphylococcus aureus [8]) [µM]	MIC (Pseudomonas aeruginosa [9]) [µM]	MIC (Acinetobacter baumannii [10]) [µM]	MIC (Pseudomonas aeruginosa [11]) [µM]	hemolysis at 1 h, 256 µM [12] [%]	MIC [13] [µM]	MIC (Salmonella typhimurium) [µM]	MIC (Bacillus subtilis) [µM]	MIC (Enterococcus faecium) [µM]	MIC (Acinetobacter baumannii [14]) [µM]	Retention_time [15] [min]	MIC (Acinetobacter baumannii [16]) [µM]	MIC (Staphylococcus aureus [17]) [µM]	MIC (Staphylococcus aureus [18]) [µM]	MIC (Pseudomonas aeruginosa [19]) [µM]	MIC (Acinetobacter baumannii [20]) [µM]	HC10 [21] [µM]	MIC (Acinetobacter baumannii [22]) [µM]	MIC (Staphylococcus aureus [23]) [µM]	MIC (Escherichia coli [24]) [µM]	also measured
CC[C@H](C)[C@H](NC(=O)[C@H](CCCCN)NC(=O)[C@H](CCC(=O)O)NC(=O)[C@H](CCCCN)NC(=O)[C@H](CO)NC(=O)[C@H](CCCCN)NC(=O)[C@H](CCCNC(=N)N)NC(=O)[C@H](Cc1ccccc1)NC(=O)[C@H](Cc1ccccc1)NC(=O)[C@H](CC(=O)O)NC(=O)CNC(=O)[C@H](CC(C)C)NC(=O)[C@@H](N)CC(C)C)C(=O)NCC(=O)N[C@@H](CCCCN)C(=O)N[C@@H](CCC(=O)O)C(=O)N[C@@H](Cc1ccccc1)C(=O)N[C@@H](CCCCN)C(=O)N[C@@H](CCCNC(=N)N)C(=O)N[C@H](C(=O)N[C@H](C(=O)N[C@@H](CCC(N)=O)C(=O)N[C@@H](CCCNC(=N)N)C(=O)N[C@H](C(=O)N[C@@H](CCCCN)C(=O)N[C@@H](CC(=O)O)C(=O)N[C@@H](Cc1ccccc1)C(=O)N[C@@H](CC(C)C)C(=O)N[C@@H](CCCNC(=N)N)C(=O)N[C@@H](CC(N)=O)C(=O)N[C@@H](CC(C)C)C(=O)N[C@H](C(=O)N1CCC[C@H]1C(=O)N[C@@H](CCCNC(=N)N)C(=O)N[C@H](C(=O)N[C@@H](CCC(=O)O)C(=O)N[C@@H](CO)C(=O)O)[C@@H](C)O)C(C)C)[C@@H](C)CC)C(C)C)[C@@H](C)CC [CATHELICIDIN]	–	–	–	–	–	–	–	–	–	–	–	–	–	–	–	–	–	–	–	–	Activity (Pseudomonas aeruginosa [1]): >50%; inhibition (INH) (Pseudomonas aeruginosa [2]): >50%
O=C(N[C@H](CO)[C@H](O)c1ccc([N+](=O)[O-])cc1)C(Cl)Cl [CHLORAMPHENICOL]	–	–	–	–	–	–	–	–	–	–	–	–	–	–	–	–	–	–	–	–	MIC (Pseudomonas aeruginosa [3]): 4100 µM (≈ 1320 µg/mL); MIC (Staphylococcus aureus [4]): 1020 µM (≈ 331 µg/mL)
C[C@@H](O)[C@H]1C(=O)N2C(C(=O)O)=C(SCCNC=N)C[C@H]12	–	–	–	–	–	–	–	–	–	–	–	–	–	–	–	–	–	–	–	–	Activity (Acinetobacter baumannii [5]): inactive; Activity (Acinetobacter baumannii [6]): inactive
CN(C)[C@@H]1C(O)=C(C(N)=O)C(=O)[C@@]2(O)C(O)=C3C(=O)c4c(O)cccc4[C@@](C)(O)[C@H]3C[C@@H]12 [TETRACYCLINE]	–	–	–	–	–	–	–	–	–	–	–	–	–	–	–	–	–	–	–	–	fold change (FC) (Escherichia coli [7]): 256
H-HVFRLKKWIQKVIDQFGE-OH	> 128	128	4	128	7.8	16	32	32	> 128	4	25.53	64	> 128	128	> 128	4	> 256	32	> 128	32	–
H-GVFRLKKWIQKVIRQWGR-NH2	8	8	2	2	21.2	4	4	2	8	4	25.15	2	4	8	16	4	122	2	8	8	fold change (FC) [25]: ~ 5; fold change (FC) [26]: ~ 5; Activity [27]: Active; fold change (FC) [28]: ~ 5
